Reference: US20080039410A1, “Inositol 1,4,5-Trisphosphate Receptor Mutants and Uses Thereof” (priority 2004, published 2008)

Test system: S2+ InsP3R-1
Test: CCh concentration-response of Ca2+ release in Dt-40 3ko cells expressing m3R and S2+ InsP3R-1 constructs
Format: cell-based, rat
Conditions: for maximum peak Δ response to CCh: Fura-2 340/380 ratio; for fold change from WT (CCh EC50): S2 + InsP3R-1 constructs, Table 2; for EC50: fit of normalized initial peak, read-out: EC50 for CCh-induced Ca^2+ release
Excerpt: The rat S2^+ InsP3R-1 in the expression plasmid pIRES-GFP was digested with the restriction endonuclease SalI. The overhang created by digestion was blunted by using T4 polymerase. An EcoRI linker was then ligated onto the blunted ends of the construct. The entire receptor DNA was excised from the plasmid using EcoRI and ligated into the plasmid MXT-1. The region containing the S2^− splice variant and potential PKA phosphorylation sites was excised from its backbone in pCDNA 3.1+ by RsrII and KasI and ligated into the InsP3R construct in MXT-1. The potential PKA phosphorylation sites Ser-1589 and Ser-1755 were mutated, individually in both splice variants and together in the S2^− splice variant, to alanines or glutamates by using sequential PCR mutagenesis. The outside primers used for the mutagenesis reaction flanked the restriction sites RsrII and KasI. Following mutation, the resulting fragments were cut with RsrII and KasI and inserted into the InsP3R-1 backbone at the corresponding sites. The mutations were confirmed by Big Dye fluorescent sequencing. Mutated receptor DNAs were excised from MXT-1 by using EcoRI and ligated into the mammalian expression vector pGW (provided by Dr. David Yue, Johns Hopkins University). Orientation was confirmed by using restriction enzyme digestion. Mutants were named based on the splice variant, either S2+ or S2− followed by the amino acid present at position 1589 and 1755. Thus, a mutation in S2^+ InsP3R-1 S1755E is designated, “S2+SE,” and in InsP3R-1 […] S1755A is designated “S2^−SA”. Similarly, an S2− InsP3R-1 with mutations in both S1589E and S1755E is designated “S2−EE”. The numbering of residues is based on the full-length rat InsP3R-1.
Dt-40 cells lacking all three InSP3 receptor subtypes were transfected by using electroporation at 350 V and 950 microfarads (4-mm gap cuvette). 2×10^7 cells were co-transfected with 25 μg of the InsP3R-1 cDNA, 25 μof the muscarinic type 3 (m3R) receptor DNA, and 4 μg of the red fluorescent protein plasmid pHcRed1-N1 (Clontech). Cells were incubated with DNA in 500 μl of Opti-MEM media (Invitrogen) on ice for 10 min. The cell/DNA mixture was electroporated, incubated on ice for 30 min, increased to 5 ml with Opti-MEM, and placed in a 5% CO2 incubator at 39° C. for 5 h. The cells were then centrifuged and resuspended in 12 ml of complete RPMI media (Invitrogen). Transfection efficiency was typically ˜20%. Experiments were performed within 32 h of transfection.
Transfected Dt-40 3ko cells were washed once in a HEPES-buffered physiological saline solution (HEPES-PSS) containing (in mM) 5.5 glucose, 137 NaCl, 0.56 MgCl2, 4.7 KCl, 1 Na2HPO4, 10 HEPES (pH 7.4), 1.2 CaCl2, and 1% w/v bovine serum albumin. Cells were then resuspended in bovine serum albumin HEPES-PSS with 1 μM Fura-2 (AM), placed on a 15-mm glass coverslip in a low volume perfusion chamber, and allowed to adhere for 30 min at room temperature. Cells were perfused continuously for 10 min with HEPES-PSS before experimentation to allow complete Fura-2 de-esterification. A field of cells for each experiment was chosen that contained a wide range of transfection efficiency based upon the intensity of red fluorescence emitted when excited at 560 nm. Individual cells that had emission gray levels between 1500 and 2500 were subsequently chosen to standardize expression levels. [Ca^2+]i imaging was performed essentially as described previously by using an inverted epifluorescence Nikon microscope with a 40× oil immersion objective lens (numerical aperture, 1.3) (100). Cells were excited alternately with light at 340 and 380±10 nm bandpass filters (Chroma, Rockingham, Vt.) using a monochrometer (TILL Photonics, Pleasanton, Calif.). Fluorescence images were captured and digitized with a digital camera driven by TILL Photonics software. Images were captured every 2 s with an exposure of 2 ms and 4 by 4 binning. 340/380 ratio images were calculated online and stored immediately to a hard disk. […]

Row | Substance | maximum peak Δ response to CCh | fold change from WT (CCh EC50) | EC50 | fold more sensitive than S2+WT (CCh-induced Ca^2+ release) | fold more sensitive than nonphosphorylatable S2+SA | sensitivity of CCh-induced Ca^2+ release relative to other constructs
1 | S2+ES: S2+ InsP3R-1, long splice variant with S1589E | 0.59±0.2 ratio units | 1.3 fold | 0.0237 ± 0.0012 µM | – | – | –
2 | S2+SE: phosphomimetic S2+ InsP3R-1, long splice variant of S1755E | 0.59±0.1 ratio units | 8.9 fold | 0.0036 ± 0.0002 µM | ~9 fold | ~32 fold | increased sensitivity
